Measurements published in ChEMBL document CHEMBL2401728, “An unexpected Dimroth rearrangement leading to annelated thieno[3,2-d][1,2,3]triazolo[1,5-a]pyrimidines with potent antitumor activity” (Eur J Med Chem, 2013).

What was measured:
Type in all cases: functional
UACC-62 [1] = experiment: Cytotoxicity against human UACC62 cells assessed as cellular growth at 0.01 uM after 48 hrs by SRB assay relative to control
SK-MEL-5 = experiment: Cytotoxicity against human SK-MEL-5 cells assessed as cellular growth at 0.01 uM after 48 hrs by SRB assay relative to control
LOX IMVI [2] = experiment: Cytotoxicity against human LOXIMVI cells assessed as cellular growth at 0.01 uM after 48 hrs by SRB assay relative to control
U-251 [3] = experiment: Cytotoxicity against human U251 cells assessed as cellular growth at 0.01 uM after 48 hrs by SRB assay relative to control
KM12 = experiment: Cytotoxicity against human KM12 cells assessed as cellular growth at 0.01 uM after 48 hrs by SRB assay relative to control
COLO 205 [4] = experiment: Cytotoxicity against human COLO205 cells assessed as cellular growth at 0.01 uM after 48 hrs by SRB assay relative to control
NCI-H322M [5] = experiment: Cytotoxicity against human NCI-H322M cells assessed as cellular growth at 0.01 uM after 48 hrs by SRB assay relative to control
CCRF-CEM [6] = experiment: Cytotoxicity against human CCRF-CEM cells assessed as cellular growth at 0.01 uM after 48 hrs by SRB assay relative to control
OVCAR-4 = experiment: Cytotoxicity against human OVCAR4 cells assessed as cellular growth at 100 uM after 48 hrs by SRB assay relative to control
UACC-257 [7] = experiment: Cytotoxicity against human UACC257 cells assessed as cellular growth at 100 uM after 48 hrs by SRB assay relative to control
LOX IMVI [8] = experiment: Cytotoxicity against human LOXIMVI cells assessed as cellular growth at 100 uM after 48 hrs by SRB assay relative to control
SF-539 = experiment: Cytotoxicity against human SF539 cells assessed as cellular growth at 100 uM after 48 hrs by SRB assay relative to control
SW-620 [9] = experiment: Cytotoxicity against human SW620 cells assessed as cellular growth at 100 uM after 48 hrs by SRB assay relative to control
COLO 205 [10] = experiment: Cytotoxicity against human COLO205 cells assessed as cellular growth at 100 uM after 48 hrs by SRB assay relative to control
NCI-H322M [11] = experiment: Cytotoxicity against human NCI-H322M cells assessed as cellular growth at 100 uM after 48 hrs by SRB assay relative to control
K562 = experiment: Cytotoxicity against human K562 cells assessed as cellular growth at 100 uM after 48 hrs by SRB assay relative to control
T47D = experiment: Cytotoxicity against human T47D cells assessed as cellular growth at 1 uM after 48 hrs by SRB assay relative to control
PC-3 = experiment: Cytotoxicity against human PC3 cells assessed as cellular growth at 10 uM after 48 hrs by SRB assay relative to control
RXF 393 = experiment: Cytotoxicity against human RXF393 cells assessed as cellular growth at 10 uM after 48 hrs by SRB assay relative to control
UACC-257 [12] = experiment: Cytotoxicity against human UACC257 cells assessed as cellular growth at 10 uM after 48 hrs by SRB assay relative to control
SK-MEL-2 = experiment: Cytotoxicity against human SK-MEL-2 cells assessed as cellular growth at 10 uM after 48 hrs by SRB assay relative to control
SW-620 [13] = experiment: Cytotoxicity against human SW620 cells assessed as cellular growth at 10 uM after 48 hrs by SRB assay relative to control
HOP-92 = experiment: Cytotoxicity against human HOP92 cells assessed as cellular growth at 10 uM after 48 hrs by SRB assay relative to control
HL-60(TB) = experiment: Cytotoxicity against human HL-60(TB) cells assessed as cellular growth at 10 uM after 48 hrs by SRB assay relative to control
BT-549 = experiment: Cytotoxicity against human BT549 cells assessed as cellular growth at 100 uM after 48 hrs by SRB assay relative to control
[14] = Cytotoxicity against human NCI-ADR-RES cells assessed as cellular growth at 1 uM after 48 hrs by SRB assay relative to control
OVCAR-3 = experiment: Cytotoxicity against human OVCAR3 cells assessed as cellular growth at 1 uM after 48 hrs by SRB assay relative to control
U-251 [15] = experiment: Cytotoxicity against human U251 cells assessed as cellular growth at 1 uM after 48 hrs by SRB assay relative to control
A549 = experiment: Cytotoxicity against human A549 cells assessed as cellular growth at 1 uM after 48 hrs by SRB assay relative to control
SR [16] = experiment: Cytotoxicity against human SR cells assessed as cellular growth at 1 uM after 48 hrs by SRB assay relative to control
DU-145 = experiment: Cytotoxicity against human DU145 cells after 48 hrs by SRB assay; settings: DU-145, 48 h
SK-MEL-28 = experiment: Cytotoxicity against human SK-MEL-28 cells after 48 hrs by SRB assay; settings: SK-MEL-28, 48 h
NCI-H460 = experiment: Cytotoxicity against human NCI-H460 cells after 48 hrs by SRB assay; settings: NCI-H460, 48 h
CCRF-CEM [17] = experiment: Cytotoxicity against human CCRF-CEM cells after 48 hrs by SRB assay
UACC-62 [18] = experiment: Cytotoxicity against human UACC62 cells assessed as cellular growth at 0.1 uM after 48 hrs by SRB assay relative to control
SNB-75 = experiment: Cytotoxicity against human SNB75 cells assessed as cellular growth at 0.1 uM after 48 hrs by SRB assay relative to control
HCT-15 = experiment: Cytotoxicity against human HCT15 cells assessed as cellular growth at 0.1 uM after 48 hrs by SRB assay relative to control
SR [19] = experiment: Cytotoxicity against human SR cells assessed as cellular growth at 0.1 uM after 48 hrs by SRB assay relative to control
SN12C = experiment: Cytotoxicity against human SN12C cells assessed as cellular growth at 0.01 uM after 48 hrs by SRB assay relative to control
[20] = read-out: LC50 (the source's name)
[21] = read-out: pLC50 (the source's name) (converted)

`CN1CCN(CCCn2c3c(sc4ncccc43)c(=O)n3nnc(-c4ccccc4)c23)CC1` gave an Activity (UACC-62 [1]) of 91%, an Activity (SK-MEL-5) of 96% and an Activity (LOX IMVI [2]) of 93%. For the same compound, the Activity (U-251 [3]) was 97%, the Activity (KM12) was 101% and the Activity (COLO 205 [4]) was 95%. It also gave an Activity (NCI-H322M [5]) of 97%, an Activity (CCRF-CEM [6]) of 109% and an Activity (OVCAR-4) of -70%. The Activity (UACC-257 [7]) was -87%, the Activity (LOX IMVI [8]) was -46% and the Activity (SF-539) was -69%. It also gave an Activity (SW-620 [9]) of -75%, an Activity (COLO 205 [10]) of -86% and an Activity (NCI-H322M [11]) of -92%. For the same compound, the Activity (K562) was -29%, the Activity (T47D) was 103% and the Activity (PC-3) was -3.82%. It also gave an Activity (RXF 393) of -93%, an Activity (UACC-257 [12]) of -87% and an Activity (SK-MEL-2) of 99.31%. It also gave an Activity (SW-620 [13]) of -63%, an Activity (HOP-92) of 42% and an Activity (HL-60(TB)) of -56%. It also gave an Activity (BT-549) of -81%, an Activity [14] of 92% and an Activity (OVCAR-3) of 96%. The Activity (U-251 [15]) was 98%, the Activity (A549) was 95% and the Activity (SR [16]) was 104%. It also gave a GI50 (DU-145; read-out: GI50) of 1.85 µM, a CC50 (DU-145; [20]) of 7.24 µM and a TGI (DU-145; read-out: TGI) of 3.66 µM. The GI50 (DU-145; read-out: pGI50 (converted)) was 1.86 µM, the CC50 (DU-145; [21]) was 7.24 µM and the TGI (DU-145; read-out: pTGI (converted)) was 3.63 µM. It also gave a GI50 (SK-MEL-28; read-out: GI50) of 15.8 µM, a CC50 (SK-MEL-28; [20]) of 55.5 µM and a TGI (SK-MEL-28; read-out: TGI) of 29.6 µM. The GI50 (SK-MEL-28; read-out: pGI50 (converted)) was 15.8 µM, the CC50 (SK-MEL-28; [21]) was 55 µM and the TGI (SK-MEL-28; read-out: pTGI (converted)) was 29.5 µM. The GI50 (NCI-H460; read-out: GI50) was 1.92 µM, the CC50 (NCI-H460; [20]) was 8.13 µM and the TGI (NCI-H460; read-out: TGI) was 3.95 µM. It also gave a GI50 (NCI-H460; read-out: pGI50 (converted)) of 1.91 µM, a CC50 (NCI-H460; [21]) of 8.13 µM and a TGI (NCI-H460; read-out: pTGI (converted)) of 3.98 µM. The GI50 (CCRF-CEM [17]; read-out: GI50) was 1.67 µM, the CC50 (CCRF-CEM [17]; [20]) was over 100 µM and the TGI (CCRF-CEM [17]; read-out: TGI) was 4.29 µM. The GI50 (CCRF-CEM [17]; read-out: pGI50 (converted)) was 1.66 µM, the CC50 (CCRF-CEM [17]; [21]) was over 100 µM and the TGI (CCRF-CEM [17]; read-out: pTGI (converted)) was 4.27 µM. It also gave an Activity (UACC-62 [18]) of 79%, an Activity (SNB-75) of 71% and an Activity (HCT-15) of 91%. The Activity (SR [19]) was 104% and the Activity (SN12C) was 97%.

Work on `O=C(CCCn1c2c(sc3ccccc32)c(=O)n2nnc(-c3ccccc3)c12)NCCc1c[nH]cn1` yielded an Activity (UACC-62 [1]) of 99%, an Activity (SK-MEL-5) of 101% and an Activity (LOX IMVI [2]) of 103%. For the same compound, the Activity (U-251 [3]) was 78%, the Activity (KM12) was 106% and the Activity (COLO 205 [4]) was 87%. The Activity (NCI-H322M [5]) was 104%, the Activity (CCRF-CEM [6]) was 56% and the Activity (OVCAR-4) was -87%. It also gave an Activity (UACC-257 [7]) of -80%, an Activity (LOX IMVI [8]) of -100% and an Activity (SF-539) of -99%. The Activity (SW-620 [9]) was -100%, the Activity (COLO 205 [10]) was -100% and the Activity (NCI-H322M [11]) was -84%. For the same compound, the Activity (K562) was -100%, the Activity (T47D) was 57% and the Activity (PC-3) was -84.51%. The Activity (RXF 393) was -70%, the Activity (UACC-257 [12]) was -69% and the Activity (SK-MEL-2) was -90.32%. It also gave an Activity (SW-620 [13]) of -84.52%, an Activity (HOP-92) of -75.7% and an Activity (HL-60(TB)) of -29%. The Activity (BT-549) was -72%, the Activity [14] was 51% and the Activity (OVCAR-3) was 92%. For the same compound, the Activity (U-251 [15]) was 36%, the Activity (A549) was 64% and the Activity (SR [16]) was -18%. For the same compound, the GI50 (DU-145; read-out: GI50) was 1.07 µM, the CC50 (DU-145; [20]) was 4.75 µM and the TGI (DU-145; read-out: TGI) was 2.26 µM. For the same compound, the GI50 (DU-145; read-out: pGI50 (converted)) was 1.07 µM, the CC50 (DU-145; [21]) was 4.79 µM and the TGI (DU-145; read-out: pTGI (converted)) was 2.24 µM. The GI50 (SK-MEL-28; read-out: GI50) was 1.69 µM, the CC50 (SK-MEL-28; [20]) was 5.91 µM and the TGI (SK-MEL-28; read-out: TGI) was 3.17 µM. The GI50 (SK-MEL-28; read-out: pGI50 (converted)) was 1.7 µM, the CC50 (SK-MEL-28; [21]) was 5.89 µM and the TGI (SK-MEL-28; read-out: pTGI (converted)) was 3.16 µM. The GI50 (NCI-H460; read-out: GI50) was 1.59 µM, the TGI (NCI-H460; read-out: TGI) was 3.95 µM and the GI50 (NCI-H460; read-out: pGI50 (converted)) was 1.58 µM. For the same compound, the TGI (NCI-H460; read-out: pTGI (converted)) was 3.98 µM, the GI50 (CCRF-CEM [17]; read-out: GI50) was 0.0156 µM and the CC50 (CCRF-CEM [17]; [20]) was 5.29 µM. For the same compound, the TGI (CCRF-CEM [17]; read-out: TGI) was 0.29 µM, the GI50 (CCRF-CEM [17]; read-out: pGI50 (converted)) was 0.0155 µM and the CC50 (CCRF-CEM [17]; [21]) was 5.25 µM. The TGI (CCRF-CEM [17]; read-out: pTGI (converted)) was 0.288 µM, the Activity (UACC-62 [18]) was 96% and the Activity (SNB-75) was 115%. For the same compound, the Activity (HCT-15) was 78%, the Activity (SR [19]) was 85% and the Activity (SN12C) was 50%.

`O=C(O)CCCn1c2c(sc3ccccc32)c(=O)n2nnc(-c3ccccc3)c12` showed an Activity (PC-3) of 89.28%, an Activity (RXF 393) of 51.92% and an Activity (UACC-257 [12]) of 111.46%. The Activity (SK-MEL-2) was 107.41%, the Activity (HOP-92) was 107.65% and the Activity (HL-60(TB)) was 113.58%.
